Experimental data taken from ChEMBL document CHEMBL3507680, “University of Dundee, Gates Library screen for HepG2 cell viability”.

test: Human HepG2 cell viability assay in 384 well format; format: toxicity, cell-based; set-up: dose 125 nL, time 70.5 hour; concentration not given beside the values; conditions: HepG2 cells, read-out: Inhibition

SMILES	cytotoxicity at 70.5 h [%]
c1ccc(CNC[C@H]2Cn3ccnc3CO2)cc1	4.33
N#Cc1ccc(C(=O)N2CCn3c(Cn4cccn4)cnc3C2)cc1	7.14
NCCn1cc(C(=O)NCc2ccccc2-n2cccn2)nn1	-4.33
Cc1noc(C)c1CN1CCc2nn(C(C)C)c(=O)cc2C1	38.6
Cc1ncc(CN(Cc2ccccn2)Cc2ccccc2Cl)n1C	11.6
CN(CC(=O)Nc1cccnc1)CC1CCCN1c1cccnn1 (stereo not drawn)	-7.79
COCC(=O)N1CCN(C(C)=O)C[C@@H]1C(=O)OC	12.2
CCn1ncc(C(=O)N2CCN(CC3CCCO3)CC2)c1C (stereo not drawn)	-0.538
Cn1cncc1C(=O)N1C[C@@H]2CCN(c3cnccn3)C[C@@H]2C1	-11.9
Cc1nccn1CCC1CCN(c2ncccn2)CC1	-6.44
CCCc1nc2c(c(C)c(C)n2CCN(C)C)c(N)c1CC	3.64
CC(NC(=O)Nc1nccs1)c1cccnc1 (stereo not drawn)	-2.43
Cc1c(CN2CCCC(n3c(=O)oc4ccccc43)C2)cnn1C (stereo not drawn)	17.2
COCCN1CCC(CNC(=O)c2c[nH]c(=O)c(Cl)c2)CC1	-10.5
N#Cc1cccc(OCc2ccoc2C(=O)N2CCCCCC2)c1	-2.71
CSc1ccc(NCc2csc(CS(C)(=O)=O)n2)cc1F	-1.97
COC(CNC(=O)N1CCC(n2cncn2)CC1)c1ccccc1 (stereo not drawn)	6.02
CC(C)CN(C)S(=O)(=O)c1ccc(Cl)cc1C#N	34.3
CC(C)(C)NCc1ccc(OCc2ccc3c(c2)OCCO3)cc1	8.79
Cc1nn(CC(=O)Nc2ccon2)c(C)c1Br	-11.8
O=C(c1cc2c([nH]c1=O)CCC2)N1CCCC1c1ccccn1 (stereo not drawn)	-2.83
Cc1nc2c(N3CCC(O)(Cn4ccnc4)CC3)ncnc2o1	-0.124
Oc1cc(C2CCCCN2Cc2cccs2)nc(-c2ccncc2)n1 (stereo not drawn)	-11.8

SMILES	cytotoxicity at 70.5 h [%]
COc1cc2c(cc1CNCc1cccnc1OC)OC(C)C2 (stereo not drawn)	-8.84
Cc1ccc(-c2nc(C(=O)N3CCOCC3)cs2)c(C)c1	-12.3
Cc1cnn(CC2CCCN2Cc2noc(C(C)C)n2)c1 (stereo not drawn)	-5.54
Cc1cc(CN2CCN(C(=O)CCc3cccc(F)c3F)CC2)on1	-6.52
CCS(=O)(=O)CCN1CCCC1c1noc(C2CC2)n1 (stereo not drawn)	27
Cc1ccccc1CN1CCC(CNc2ncnc3c2CCNCC3)C1 (stereo not drawn)	1.87
CCn1nccc1S(=O)(=O)N1CCC2(CCCN(C(C)C)C2=O)C1 (stereo not drawn)	-14.6
CCc1nncn1CCNC(=O)Nc1ccc2c(c1)CCCO2	1.85
Cc1cccc(CN2CCN(C(=O)N(C)C)[C@@H]3CS(=O)(=O)C[C@@H]32)n1	2.11
CN1CCCN(c2nc3c(cnn3C(C)(C)C)c(=O)[nH]2)CC1	16.5
O=C(c1ccc[nH]1)N1CCc2ccc(S(=O)(=O)N3CCOCC3)cc2C1	3.25
Cc1nn(CCO)cc1CN1CCCC1c1nc2c(C)cccc2[nH]1 (stereo not drawn)	-2.76
CN(C)C(=O)c1ccccc1NCCCOc1cccc(C#N)c1	13.1
NCC(=O)N1CCCC(c2cncc(Nc3ncccn3)n2)C1 (stereo not drawn)	-13.9
O=C1CCc2cc(S(=O)(=O)NCc3cc4n(n3)CCCNC4)ccc2N1	-12.2
COCC(C)(CCO)NC(=O)Nc1c(F)cccc1Br (stereo not drawn)	1.51
COCC1COCCC12CCN(C(=O)COc1ccccc1)CC2 (stereo not drawn)	-14.3
Cc1nc(CCNC(=O)NC2CCCN(c3ncccn3)C2)cs1 (stereo not drawn)	23.9
Cc1nc[nH]c1CN1CCN(C(=O)C2CC2)[C@H]2CS(=O)(=O)C[C@H]21	-12.6
CC(C)c1ccc(/C=C/CC(=O)NC2CCS(=O)(=O)CC2)cc1	-1.79
O=C1CC(c2ccc(F)cc2)c2cnn(C3CCCC3)c2N1 (stereo not drawn)	-7.98
CN(C)C(=O)CSc1nnc(CCNC(=O)OC(C)(C)C)o1	22.7
c1cncc(CN2CCCC(c3nnc(-c4cnccn4)o3)C2)c1 (stereo not drawn)	-14

SMILES	cytotoxicity at 70.5 h [%]
CN(C)C(=O)c1cc(S(=O)(=O)N2CCCC2Cn2ccnc2)cn1C (stereo not drawn)	2.99
COCC(=O)N[C@H](C)c1onc(-c2ccc(Cl)cc2)c1C(=O)O	-1.96
CC(O)CN1CCN(C(=O)c2cccn2Cc2ccncc2)CC1 (stereo not drawn)	-16.4
CC1CCN(C(=O)Cn2nc(Br)nc2Br)CC1	-5.71
CNC(=O)[C@H]1C[C@@H]2CN(Cc3cccc(C)c3)C[C@H]1O2	-6.34
CC(NC(=O)CNS(C)(=O)=O)c1ccccc1Oc1ccccc1 (stereo not drawn)	-7.15
CC(C)(C)c1nc(CN2CCc3onc(-c4cccc(F)c4)c3C2)no1	-12.1
CCN1CCN(c2ccc(F)cc2C(C)NCc2cscn2)CC1 (stereo not drawn)	-3.66
Cc1ccc(=O)n(CC2(O)CCN(Cc3c(F)cccc3F)CC2)n1	0.803
Cc1noc(C)c1CNC(=O)c1cn(CCC2CCCCN2)nn1 (stereo not drawn)	-0.767
COCCCN(Cc1ccncc1)c1cc(C)ncn1	6.24
O=C(NCc1ccco1)c1[nH]nc2c1CS(=O)(=O)CC2	22.5
O=C(Cc1ccccn1)N1CCN2C[C@H](OCCN3CCCC3)C[C@H]2C1	19.7
N#Cc1cccc(CN2CCn3cc(Cn4cccn4)nc3C2)c1	-16
Cc1noc(CN2Cc3ccccc3CC2c2nnc(C)o2)n1 (stereo not drawn)	4.3
CCOc1ncccc1-c1cc2c(cc1C(N)=O)OCO2	-3.42
N#Cc1ccc(N2CCN(c3ccc4nncn4n3)CC2)nc1	-2
CC(C)(O)CN1CCN(C(=O)c2cccc3[nH]ncc23)CC1	-1.27
N#Cc1ccc(N2CCC3(CCC(=O)N3Cc3cccnc3)CC2)nc1	-5.74
CC1=C(C#N)C(=O)NC(=O)/C1=C\c1c(C)nn(-c2ccc(Cl)cc2)c1O	-6.07
Cc1ncsc1CCN(C)C(=O)C(c1cccnc1)N1CCOCC1 (stereo not drawn)	-5.13
O=C(c1ccc(-n2cccn2)nc1)N1CCC(Nc2cccnn2)CC1	-18.2
Cn1ncc2c(N3CCCC4(CCNC4)C3)nc(C(C)(C)C)nc21 (stereo not drawn)	-11.5

SMILES	cytotoxicity at 70.5 h [%]
O=S(=O)(CCCn1cncn1)Cc1cccc(F)c1	-9.13
O=C(CCC1CCCC1)N1CCC(c2cc3ncccc3c(O)n2)CC1	0.616
O=C(c1ccn(COc2ccc(F)cc2)n1)N1CCCCCC1	-3.63
CC(=O)NCCc1ccc(C(=O)N2CCCC2c2cnn(C)c2)cc1 (stereo not drawn)	15.1
CCn1cc(-c2cc(-c3cc(CN(C)C)cs3)nc(N)c2C#N)c(C)n1	-6.34
Cc1nn(C(C)C)c(C)c1S(=O)(=O)Nc1cccc(C(=O)O)c1	-5.93
CN1CCC(c2[nH]ncc2S(C)(=O)=O)CC1	-7.29
CSc1ccsc1C(=O)NS(=O)(=O)c1cnn(C)c1	-15.6
O=C(Cc1ccccc1F)N1CCN(C(=O)c2cccc(F)c2)CC1	38
Cc1nsc(C(=O)NCCc2ccc(Cl)cc2)n1	2.81
CCOc1ncccc1NC(=O)N1CCN(Cc2ccncc2)CC1	-4.21
Cc1cc(C)cc(CN2CCN(C(=O)CCc3n[nH]c(C)n3)CC2=O)c1	22.5
COC(=O)Nc1nc2c(s1)CN(C(=O)NCc1cccs1)CC2	-7.97
Cc1noc(C)c1-c1nc(C2CCCNC2)ccc1CO (stereo not drawn)	-5.83
Cc1nn(C)c2c(=O)n(Cc3ccccc3)nnc12	-13.5
O=C(CCn1ccccc1=O)N1CCCC(COc2ccc(F)cc2)C1 (stereo not drawn)	-7.1
CC(C)c1ncc2c(n1)CN(CC1CCCCO1)CC2 (stereo not drawn)	-2.55
Cc1cnn(CC2CCCCN2C(=O)c2ccc(NC3CC3)nc2)c1 (stereo not drawn)	-4.98
O=C(c1ccc(N2CCCC2)nn1)N1CCc2ccccc21	0.119
CCn1cc(CN2CCC(CN3CCCCC3)CC2)cc1C#N	4.33
CNC(=O)c1cnc(/C=C/c2cc(OC)c(OC)c(OC)c2)s1	3.41
CC(=O)N(Cc1ncc(C)o1)C1CCN(Cc2ccc(F)c(F)c2)C1 (stereo not drawn)	-4.3
Cc1cc(C)n(Cc2cc(C(=O)N3CCCC3c3nccs3)n[nH]2)n1 (stereo not drawn)	-13.2

SMILES	cytotoxicity at 70.5 h [%]
Cc1nc(-c2cccnc2)ncc1C(=O)N1CCC(c2ncc[nH]2)CC1	-3.5
O=C(NCc1c[nH]c(=O)[nH]c1=O)C1CCOc2ccccc2C1 (stereo not drawn)	8.26
CCC[C@@H]1CN(Cc2ccc3c(c2)OCCO3)C[C@H]1C(=O)O	-0.0956
COc1ccccc1Cc1cncc(N2CC(C(=O)O)C2)n1	-13.5
COCCNC1(c2ccc(Cl)cc2)CCOCC1	11
CCN1CC(CN(C)Cc2nc(-c3ccoc3)oc2C)CC1=O (stereo not drawn)	0.925
O=C(Nc1cnn(-c2ccccc2Cl)c1)N[C@@H]1C=C[C@H](CO)C1	-5.42
Cn1ccnc1CNC[C@H]1Cn2cc(-c3ccccc3)nc2CO1	-8.01
O=C1CCSCC(C(=O)N2CCN(C3CCCCC3)CC2)N1 (stereo not drawn)	0.692
CNC(=O)N1CCC2(CC1)CC[C@@]1(C(=O)NC)CN(S(C)(=O)=O)C[C@@H]21	-0.00397
Cc1cnn(CC2CCCCN2CC(=O)Nc2nncs2)c1 (stereo not drawn)	-1.03
Cn1ccnc1CN1CCC2(CC(=O)N(c3ccc4c(c3)OCO4)C2)C1 (stereo not drawn)	-17.1
Cc1ccc(OCc2occc2C(=O)N2CC[C@H](CO)[C@@H](O)C2)cc1	-8.34
COCCN1C[C@@H]2[C@@H](OC)CCN(Cc3cccs3)[C@@H]2C1	-1.71
Fc1ccc(N2CCOC(Cc3cccnc3)C2)cc1 (stereo not drawn)	-9.3
Cc1cc(SC(C)(C)C)ccc1NC(C)C(=O)NC(N)=O (stereo not drawn)	9.69
CNc1nc(C(=O)N2CCC3(CCCN(CC4CC4)C3=O)C2)cs1 (stereo not drawn)	-1.68
O=C(O)[C@@H]1CN(C(=O)c2ccc3[nH]nnc3c2)C[C@H]1c1cccc(F)c1	-8.9
Cc1csc([C@@H]2C[C@@H]3CCN(C(=O)c4cc(C)on4)C[C@H]3O2)n1	-1.08
Cc1nn(C)c2nc(N3CCC(C(O)c4nccn4C)CC3)sc12 (stereo not drawn)	-11.6
COc1cccc(-c2cccc(-c3ccn(CC4COCCO4)n3)c2)n1 (stereo not drawn)	13.1
